From ChEMBL document CHEMBL1146512, “Ketene acetal and spiroacetal constituents of the marine fungus Aigialus parvus BCC 5311” (J Nat Prod, 2004)
Calls of active or inactive are those of the source.

Assays:
[1] = tested on: Mycobacterium tuberculosis; assay: Antitubercular activity against Mycobacterium tuberculosis H37Ra; format: functional, organism-based
Candida albicans = assay: Antifungal activity against Candida albicans; format: functional, organism-based
Plasmodium falciparum = assay: Antimalarial activity against Plasmodium falciparum K1; format: functional, organism-based
KB = assay: Cytotoxicity against human KB cells; format: functional, cell-based
BC1 = assay: Cytotoxicity against human BC1 cells; format: functional, cell-based
Human alphaherpesvirus 1 = assay: Antiviral activity against HSV1; format: functional, organism-based

Measured: Activity

CCCCCCC[C@@H]1OC2=C(C(=O)[C@H](C)O2)[C@H](O)[C@@]1(C)O
inactive: all assays above

COc1cc(O)c2c(c1)[C@@H]([C@H]1C[C@H](O)[C@H](O)[C@@]3(C=CC[C@H](C)O3)O1)OC2=O
inactive: all assays above
